# Measurements reported in ChEMBL document CHEMBL5442219.
# Experiments:
# Settings in all cases: Compound concentration 10 µM
# [1] = target: T1, Alpha-2A adrenergic receptor (Homo sapiens) (UniProt P08913)
# T1 sequence (whole entry): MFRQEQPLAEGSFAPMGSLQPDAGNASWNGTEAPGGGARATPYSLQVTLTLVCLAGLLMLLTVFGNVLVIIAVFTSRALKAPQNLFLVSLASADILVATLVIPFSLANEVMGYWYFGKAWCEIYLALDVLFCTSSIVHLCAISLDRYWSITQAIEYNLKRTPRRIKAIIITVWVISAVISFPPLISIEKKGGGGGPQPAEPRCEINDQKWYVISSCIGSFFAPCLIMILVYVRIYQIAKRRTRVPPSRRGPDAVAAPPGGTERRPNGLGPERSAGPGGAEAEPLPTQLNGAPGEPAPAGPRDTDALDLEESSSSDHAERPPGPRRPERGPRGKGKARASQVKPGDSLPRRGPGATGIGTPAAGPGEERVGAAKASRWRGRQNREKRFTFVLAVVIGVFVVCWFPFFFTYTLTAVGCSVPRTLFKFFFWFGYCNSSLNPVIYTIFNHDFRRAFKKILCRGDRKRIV
# Description: PDSP Primary Binding target: ADRA2A - Compounds are tested at 10 uM concentration, plate are incubated at room temperature in the dark for 90 minutes. Reaction are stopped by vacuum filtration onto 0.3% polyethyleneimine soaked filter mats using Filtermate harvester. Scintilation cocktail is then melted onto microwave-dried filters on a hot plate and the radio activity is counted in Microbia counter.
# [2] = target: T2, Muscarinic acetylcholine receptor M2 (Homo sapiens) (UniProt P08172)
# T2 sequence (whole entry): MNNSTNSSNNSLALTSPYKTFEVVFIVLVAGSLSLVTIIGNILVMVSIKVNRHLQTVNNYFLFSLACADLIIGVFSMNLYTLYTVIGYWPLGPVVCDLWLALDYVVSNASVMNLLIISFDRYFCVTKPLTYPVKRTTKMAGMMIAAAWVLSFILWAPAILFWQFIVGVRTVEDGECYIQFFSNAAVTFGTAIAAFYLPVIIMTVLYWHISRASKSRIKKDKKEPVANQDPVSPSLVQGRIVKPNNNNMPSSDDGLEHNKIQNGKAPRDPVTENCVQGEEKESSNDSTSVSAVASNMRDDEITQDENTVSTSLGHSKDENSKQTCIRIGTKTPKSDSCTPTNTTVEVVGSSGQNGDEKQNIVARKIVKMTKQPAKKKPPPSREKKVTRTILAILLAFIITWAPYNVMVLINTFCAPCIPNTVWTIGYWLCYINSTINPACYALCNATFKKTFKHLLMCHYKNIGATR
# Description: PDSP Primary Binding target: CHRM2 - Compounds are tested at 10 uM concentration, plate are incubated at room temperature in the dark for 90 minutes. Reaction are stopped by vacuum filtration onto 0.3% polyethyleneimine soaked filter mats using Filtermate harvester. Scintilation cocktail is then melted onto microwave-dried filters on a hot plate and the radio activity is counted in Microbia counter.
# [3] = target: T3, 5-hydroxytryptamine receptor 3A (Homo sapiens) (UniProt P46098)
# T3 sequence (whole entry): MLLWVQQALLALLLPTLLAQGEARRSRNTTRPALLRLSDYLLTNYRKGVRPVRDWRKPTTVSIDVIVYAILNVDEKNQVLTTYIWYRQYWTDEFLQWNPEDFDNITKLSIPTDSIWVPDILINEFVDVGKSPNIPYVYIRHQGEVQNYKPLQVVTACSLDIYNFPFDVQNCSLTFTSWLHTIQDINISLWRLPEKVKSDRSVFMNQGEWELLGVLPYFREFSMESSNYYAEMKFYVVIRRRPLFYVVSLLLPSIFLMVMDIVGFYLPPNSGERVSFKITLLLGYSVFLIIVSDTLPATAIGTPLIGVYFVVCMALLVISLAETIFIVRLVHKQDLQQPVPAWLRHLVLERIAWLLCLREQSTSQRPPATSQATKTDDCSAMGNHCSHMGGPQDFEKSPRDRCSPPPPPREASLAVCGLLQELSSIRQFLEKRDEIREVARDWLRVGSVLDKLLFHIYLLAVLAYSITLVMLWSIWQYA
# Description: PDSP Primary Binding target: HTR3A - Compounds are tested at 10 uM concentration, plate are incubated at room temperature in the dark for 90 minutes. Reaction are stopped by vacuum filtration onto 0.3% polyethyleneimine soaked filter mats using Filtermate harvester. Scintilation cocktail is then melted onto microwave-dried filters on a hot plate and the radio activity is counted in Microbia counter.
# [4] = target: T4, Muscarinic acetylcholine receptor M5 (Homo sapiens) (UniProt P08912)
# T4 sequence (whole entry): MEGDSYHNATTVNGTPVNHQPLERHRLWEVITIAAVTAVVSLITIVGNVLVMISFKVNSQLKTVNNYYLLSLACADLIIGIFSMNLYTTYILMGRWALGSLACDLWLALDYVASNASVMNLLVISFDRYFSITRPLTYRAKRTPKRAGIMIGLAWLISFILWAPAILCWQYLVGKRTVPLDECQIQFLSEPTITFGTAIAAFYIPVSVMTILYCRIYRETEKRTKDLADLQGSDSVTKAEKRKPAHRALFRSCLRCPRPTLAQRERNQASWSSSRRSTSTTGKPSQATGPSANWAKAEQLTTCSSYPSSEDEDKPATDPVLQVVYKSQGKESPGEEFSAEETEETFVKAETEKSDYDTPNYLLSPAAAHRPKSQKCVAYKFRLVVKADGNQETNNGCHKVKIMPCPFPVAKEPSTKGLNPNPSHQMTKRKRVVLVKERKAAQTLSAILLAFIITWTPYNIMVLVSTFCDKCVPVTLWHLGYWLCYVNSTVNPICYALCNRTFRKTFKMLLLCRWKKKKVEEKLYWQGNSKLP
# Description: PDSP Primary Binding target: CHRM5 - Compounds are tested at 10 uM concentration, plate are incubated at room temperature in the dark for 90 minutes. Reaction are stopped by vacuum filtration onto 0.3% polyethyleneimine soaked filter mats using Filtermate harvester. Scintilation cocktail is then melted onto microwave-dried filters on a hot plate and the radio activity is counted in Microbia counter.
# [5] = target: Sodium-dependent serotonin transporter (Homo sapiens) (UniProt P31645)
# Sodium-dependent serotonin transporter (Homo sapiens), sequence (P31645 whole entry, looked up): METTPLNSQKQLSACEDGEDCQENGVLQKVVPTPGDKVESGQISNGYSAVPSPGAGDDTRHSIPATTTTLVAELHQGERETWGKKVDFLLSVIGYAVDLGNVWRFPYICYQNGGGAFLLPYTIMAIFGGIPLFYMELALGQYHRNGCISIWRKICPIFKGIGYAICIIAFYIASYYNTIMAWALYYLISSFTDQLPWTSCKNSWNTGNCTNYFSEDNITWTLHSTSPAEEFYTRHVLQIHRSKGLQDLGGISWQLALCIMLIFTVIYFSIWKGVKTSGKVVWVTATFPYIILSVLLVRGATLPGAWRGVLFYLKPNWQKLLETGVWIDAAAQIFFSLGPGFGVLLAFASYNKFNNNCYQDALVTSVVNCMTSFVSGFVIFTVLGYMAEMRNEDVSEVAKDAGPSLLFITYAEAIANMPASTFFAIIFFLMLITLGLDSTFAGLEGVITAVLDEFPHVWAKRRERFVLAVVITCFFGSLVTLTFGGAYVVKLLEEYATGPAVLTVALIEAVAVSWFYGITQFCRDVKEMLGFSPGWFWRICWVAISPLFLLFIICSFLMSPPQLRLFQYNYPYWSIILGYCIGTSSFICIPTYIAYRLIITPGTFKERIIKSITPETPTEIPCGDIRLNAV
# Description: PDSP Primary Binding target: SLC6A4 - Compounds are tested at 10 uM concentration, plate are incubated at room temperature in the dark for 90 minutes. Reaction are stopped by vacuum filtration onto 0.3% polyethyleneimine soaked filter mats using Filtermate harvester. Scintilation cocktail is then melted onto microwave-dried filters on a hot plate and the radio activity is counted in Microbia counter.
Compound,inhibition [2],inhibition [3],further results
Cc1nnn(-c2ccc(-c3ccc(C4(C(=O)O)CC4)cc3)cc2)c1NC(=O)O[C@H](C)c1ccccc1,,,inhibition [1]: 0.57%
COc1ccnc(N2CCC3(CCCN(Cc4c[nH]c5ccccc45)C3=O)CC2)n1,-2.35%,,
COC1CCN(c2cccc(-c3cc(NC(C)=O)nc(-n4nc(C)cc4C)n3)n2)CC1,,21.1%,inhibition [4]: -2.53%
Cc1csc(NC(=O)c2cc(F)cc(Oc3cncnc3)c2)n1,-7.43%,,inhibition [5]: 21.2%
Cc1c(C2=CCN(C(=O)N(C)C(C)C)CC2)nnn1-c1cccnc1F,,8.19%,
